One assay deals with VEGFR2 (Homo sapiens (Human), UniProt P35968). Briefly: ADP-Glo kinase assay at high ATP concentration (0.5 mM), VEGFR2. The format is biochemical. The settings on record: ATP 0.5 mM; read-out: VEGFR2 IC50 in the presence of high ATP concentration. A general note: In ADP-Glo the light output rises with the ADP produced.
Assay [1] has as its target Fyn-NanoLuc fusion protein (Homo sapiens (Human), UniProt P06241). Description: NanoBRET intracellular target engagement of Fyn in HEK293 transfected cells. The format is cell-based. The settings on record: 2 hours treatment, tracer 0.33 μM, read-out: IC50 binding value towards the Fyn-NanoLuc fusion protein. As to the method: The NanoBRET™ TE intracellular kinase assay K-4 (Promega, #N2520) was used to determine the intracellular target engagement of Fyn kinase in HEK293 cells (ATCC®, Cat. CRL-1573) transiently transfected with Fyn-NanoLuc® fusion vector (Promega, #NV1411), therefore expressing the Fyn-NanoLuc© fusion protein. The tracer was used at the final concentration of 0.33 μM, and the treatment of cells with Compounds was performed for 2 hours. Luminescence values were measured at 450 nm and 610 nm (GloMax® Discover, Promega) and raw BRET ratio values for each sample were determined. Compounds that specifically engage the intracellular target protein-NanoLuc® fusion will result in a decrease in BRET signal and in lower BRET ratio values

The subject of another assay is MMP13. Description: Gene expression in rat articular chondrocytes under IL-1β stimulation, MMP13. The following applies: Rattus norvegicus, Chondrocyte; 24 h incubation. The format is cell-based. Put shortly:
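RT-qPCR read-out, normalised to 18S (relative quantification): IL-1β and ADAMTS-5 transcripts at 6 h, MMP3 and MMP13 at 24 h. Primary rat chondrocytes in DMEM GlutaMAX I 0.4% were co-treated with compound plus 2 ng/ml cytokine. Maximal compound concentration was limited by chondrocyte toxicity.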

Consider one compound from US12509446B2, “FYN and VEGFR2 kinase inhibitors” (ROTTAPHARM BIOTECH S.R.L., priority 2019, dated 2025).

Sequence of Fyn-NanoLuc fusion protein (P06241 whole entry, the tested form may be a part): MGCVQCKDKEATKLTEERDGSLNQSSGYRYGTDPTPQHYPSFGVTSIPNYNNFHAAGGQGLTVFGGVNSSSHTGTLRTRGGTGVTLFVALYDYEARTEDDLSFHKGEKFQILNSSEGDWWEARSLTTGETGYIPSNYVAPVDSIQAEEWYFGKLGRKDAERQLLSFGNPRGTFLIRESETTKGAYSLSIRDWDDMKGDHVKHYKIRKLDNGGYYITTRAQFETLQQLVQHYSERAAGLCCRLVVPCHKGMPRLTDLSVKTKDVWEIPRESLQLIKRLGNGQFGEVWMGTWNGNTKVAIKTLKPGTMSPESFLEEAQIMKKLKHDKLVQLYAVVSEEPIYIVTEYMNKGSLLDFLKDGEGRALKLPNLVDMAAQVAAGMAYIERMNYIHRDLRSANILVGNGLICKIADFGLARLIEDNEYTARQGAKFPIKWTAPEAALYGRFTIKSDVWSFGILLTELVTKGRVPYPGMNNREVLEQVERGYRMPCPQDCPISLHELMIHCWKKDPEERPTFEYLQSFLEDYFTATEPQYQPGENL
Sequence of VEGFR2 (P35968 20-1356): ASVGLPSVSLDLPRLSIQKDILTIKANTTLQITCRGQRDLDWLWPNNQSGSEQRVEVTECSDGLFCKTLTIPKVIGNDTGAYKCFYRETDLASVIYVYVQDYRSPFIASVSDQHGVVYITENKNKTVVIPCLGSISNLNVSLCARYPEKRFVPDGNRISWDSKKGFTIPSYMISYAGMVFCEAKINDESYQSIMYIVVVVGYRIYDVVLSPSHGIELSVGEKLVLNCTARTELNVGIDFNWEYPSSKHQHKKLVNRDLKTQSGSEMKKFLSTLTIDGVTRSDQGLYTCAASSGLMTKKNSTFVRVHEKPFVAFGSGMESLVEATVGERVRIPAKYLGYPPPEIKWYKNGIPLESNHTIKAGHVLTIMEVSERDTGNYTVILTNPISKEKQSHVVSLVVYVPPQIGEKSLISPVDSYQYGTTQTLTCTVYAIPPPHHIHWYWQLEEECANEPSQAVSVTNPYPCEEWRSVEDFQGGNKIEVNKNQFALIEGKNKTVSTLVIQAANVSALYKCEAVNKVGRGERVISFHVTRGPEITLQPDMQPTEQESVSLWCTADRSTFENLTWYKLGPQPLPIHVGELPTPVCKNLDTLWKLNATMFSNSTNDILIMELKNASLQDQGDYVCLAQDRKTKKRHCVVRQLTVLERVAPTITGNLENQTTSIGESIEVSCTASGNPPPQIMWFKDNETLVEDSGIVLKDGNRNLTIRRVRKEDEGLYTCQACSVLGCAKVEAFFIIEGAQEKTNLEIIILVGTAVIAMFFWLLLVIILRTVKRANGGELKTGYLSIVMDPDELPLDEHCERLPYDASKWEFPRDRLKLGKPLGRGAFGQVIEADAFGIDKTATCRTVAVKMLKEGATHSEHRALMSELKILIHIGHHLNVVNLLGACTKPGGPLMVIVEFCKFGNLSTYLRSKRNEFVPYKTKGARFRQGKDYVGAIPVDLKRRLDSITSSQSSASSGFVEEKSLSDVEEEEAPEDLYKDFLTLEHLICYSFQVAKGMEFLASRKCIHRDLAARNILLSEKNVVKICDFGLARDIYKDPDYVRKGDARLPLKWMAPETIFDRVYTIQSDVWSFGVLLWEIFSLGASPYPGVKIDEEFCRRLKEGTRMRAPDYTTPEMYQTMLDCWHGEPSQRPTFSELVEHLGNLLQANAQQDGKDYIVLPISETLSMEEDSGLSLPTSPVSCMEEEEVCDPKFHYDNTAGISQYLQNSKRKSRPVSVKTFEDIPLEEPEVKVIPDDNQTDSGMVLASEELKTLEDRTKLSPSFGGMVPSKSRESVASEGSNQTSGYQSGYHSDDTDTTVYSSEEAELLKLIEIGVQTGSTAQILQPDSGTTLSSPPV
Procedure for VEGFR2: The inhibition of Fyn and VEGFR2 kinase activity was evaluated in the presence of a fixed ATP concentration (0.5 mM), near to the millimolar range present in cells. The assay was performed by The ADP-Glo™ Kinase Assay (Promega), monitoring ADP produced in the kinase reaction. Kinase reaction was performed in 10 μl, according to supplier indication, in a white 384-well plate.
Inhibitor solutions in DMSO/Kinase buffer and the kinase (Fyn 2.5 ng/μl and VEGFR2 0.5 ng/μl final concentration in assay) were pre-incubate 15 minutes at room temperature. The range of inhibitor concentrations was from 10^−10 M up to 10^−5 M (final concentration in assay). To start the reaction, a substrate/ATP mix (0.5 mM final concentration, corresponding to 10× ATP KM value) was added to each sample. After 60 minutes incubation at room temperature, ADP-Glo™ Reagent and Kinase Detection Reagent, added and incubated in sequence according to supplier indication, allowed to stop and develop the kinase reaction. The percentage of inhibition, calculated towards the enzymatic activity in the absence of test compound, and the corresponding inhibition curves were analyzed by non-linear curve fitting (GraphPad software, version 7 for Windows), allowing to calculate the IC50 value.

Consider `Cc1ccc(NC(=O)c2cccc(C(F)(F)F)c2)cc1CCc1cc(Nc2cnccn2)[nH]n1` [Compound 3, N-(4-methyl-3-(2-(5-(pyrazin-2-ylamino)-1H-pyrazol-3-yl)ethyl)phenyl)-3-(trifluoromethyl)benzamide], for which the IC50 came out at 58 nM at VEGFR2, 1500 nM in assay [1] and 477 nM in the assay on MMP13.
